Laboratory results published in ChEMBL document CHEMBL4507269, “Data for DCP probe BAY-386” (2021).

Assays:
Rattus norvegicus = species: Rattus norvegicus; conditions: Compound concentration 10.0 uM
[1] = target: 5'-AMP-activated protein kinase catalytic subunit alpha-2 (Homo sapiens) (UniProt P54646); conditions: Compound concentration 1000.0 nM
[2] = test system: Receptor-type tyrosine-protein kinase FLT3 (Homo sapiens), P36888 [UNDEFINED MUTATION]; conditions: Compound concentration 1000.0 nM
[3] = target: Mitogen-activated protein kinase 3 (Homo sapiens) (UniProt P27361); conditions: Compound concentration 1000.0 nM
[4] = target: Serine/threonine-protein kinase ULK1 (Homo sapiens) (UniProt O75385); conditions: Compound concentration 1000.0 nM
[5] = target: Tyrosine-protein kinase JAK2 (Homo sapiens) (UniProt O60674); conditions: Compound concentration 1000.0 nM
[6] = target: Casein kinase I isoform delta (Homo sapiens) (UniProt P48730); conditions: Compound concentration 1000.0 nM
[7] = test system: Receptor-type tyrosine-protein kinase FLT3 (Homo sapiens), P36888 [D835Y]; conditions: Compound concentration 1000.0 nM
[8] = target: Dual specificity mitogen-activated protein kinase kinase 2 (Homo sapiens) (UniProt P36507); conditions: Compound concentration 1000.0 nM
[9] = target: Tyrosine-protein kinase ITK/TSK (Homo sapiens) (UniProt Q08881); conditions: Compound concentration 1000.0 nM
[10] = target: Ephrin type-A receptor 6 (Homo sapiens) (UniProt Q9UF33); conditions: Compound concentration 1000.0 nM
[11] = target: Serine/threonine-protein kinase D1 (Homo sapiens) (UniProt Q15139); conditions: Compound concentration 1000.0 nM
Sequence of Serine/threonine-protein kinase D1 (Homo sapiens) (Q15139 whole entry): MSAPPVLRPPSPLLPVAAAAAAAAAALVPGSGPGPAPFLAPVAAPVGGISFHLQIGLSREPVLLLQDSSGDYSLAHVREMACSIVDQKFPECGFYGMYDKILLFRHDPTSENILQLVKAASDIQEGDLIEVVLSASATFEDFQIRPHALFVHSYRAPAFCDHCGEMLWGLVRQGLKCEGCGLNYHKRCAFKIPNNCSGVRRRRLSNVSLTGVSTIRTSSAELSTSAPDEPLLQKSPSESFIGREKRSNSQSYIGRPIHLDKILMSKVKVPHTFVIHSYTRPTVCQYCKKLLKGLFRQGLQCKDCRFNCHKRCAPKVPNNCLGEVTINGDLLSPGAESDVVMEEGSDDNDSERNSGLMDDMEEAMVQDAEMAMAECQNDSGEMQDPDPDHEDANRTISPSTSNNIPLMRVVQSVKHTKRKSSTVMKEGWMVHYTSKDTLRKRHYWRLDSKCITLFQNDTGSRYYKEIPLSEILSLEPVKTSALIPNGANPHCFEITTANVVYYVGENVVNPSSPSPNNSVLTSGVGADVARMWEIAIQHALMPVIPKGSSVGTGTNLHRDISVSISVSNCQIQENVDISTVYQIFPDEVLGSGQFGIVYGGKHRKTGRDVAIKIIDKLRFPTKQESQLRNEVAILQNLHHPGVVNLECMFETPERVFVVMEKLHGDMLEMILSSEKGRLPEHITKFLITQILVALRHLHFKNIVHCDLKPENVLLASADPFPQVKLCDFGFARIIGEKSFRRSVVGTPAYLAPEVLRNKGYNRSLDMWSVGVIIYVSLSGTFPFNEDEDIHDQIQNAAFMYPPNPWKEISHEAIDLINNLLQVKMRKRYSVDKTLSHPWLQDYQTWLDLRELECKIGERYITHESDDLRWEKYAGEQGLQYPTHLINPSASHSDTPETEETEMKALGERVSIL

[12] = target: T1, Alpha-1A adrenergic receptor (Homo sapiens) (UniProt P35348); assay: alpha1A (h) Eurofins-Cerep Cellular and Nuclear Receptor Functional Assays; conditions: Compound concentration 10.0 uM
T1 sequence (whole entry): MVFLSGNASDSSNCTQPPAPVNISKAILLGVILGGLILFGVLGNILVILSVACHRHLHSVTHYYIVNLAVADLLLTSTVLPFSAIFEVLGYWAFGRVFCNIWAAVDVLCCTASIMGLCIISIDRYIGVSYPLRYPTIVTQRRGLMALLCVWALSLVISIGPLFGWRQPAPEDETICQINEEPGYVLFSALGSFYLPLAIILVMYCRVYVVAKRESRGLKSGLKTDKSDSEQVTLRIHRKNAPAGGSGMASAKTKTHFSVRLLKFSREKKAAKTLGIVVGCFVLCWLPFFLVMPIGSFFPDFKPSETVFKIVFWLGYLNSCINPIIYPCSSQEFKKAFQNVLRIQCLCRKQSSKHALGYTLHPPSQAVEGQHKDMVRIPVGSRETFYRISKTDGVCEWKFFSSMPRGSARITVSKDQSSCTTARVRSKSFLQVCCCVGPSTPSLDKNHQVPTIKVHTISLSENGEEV

[13] = target: Mitogen-activated protein kinase kinase kinase 5 (Homo sapiens) (UniProt Q99683); conditions: Compound concentration 1000.0 nM
Sequence of Mitogen-activated protein kinase kinase kinase 5 (Homo sapiens) (Q99683 whole entry): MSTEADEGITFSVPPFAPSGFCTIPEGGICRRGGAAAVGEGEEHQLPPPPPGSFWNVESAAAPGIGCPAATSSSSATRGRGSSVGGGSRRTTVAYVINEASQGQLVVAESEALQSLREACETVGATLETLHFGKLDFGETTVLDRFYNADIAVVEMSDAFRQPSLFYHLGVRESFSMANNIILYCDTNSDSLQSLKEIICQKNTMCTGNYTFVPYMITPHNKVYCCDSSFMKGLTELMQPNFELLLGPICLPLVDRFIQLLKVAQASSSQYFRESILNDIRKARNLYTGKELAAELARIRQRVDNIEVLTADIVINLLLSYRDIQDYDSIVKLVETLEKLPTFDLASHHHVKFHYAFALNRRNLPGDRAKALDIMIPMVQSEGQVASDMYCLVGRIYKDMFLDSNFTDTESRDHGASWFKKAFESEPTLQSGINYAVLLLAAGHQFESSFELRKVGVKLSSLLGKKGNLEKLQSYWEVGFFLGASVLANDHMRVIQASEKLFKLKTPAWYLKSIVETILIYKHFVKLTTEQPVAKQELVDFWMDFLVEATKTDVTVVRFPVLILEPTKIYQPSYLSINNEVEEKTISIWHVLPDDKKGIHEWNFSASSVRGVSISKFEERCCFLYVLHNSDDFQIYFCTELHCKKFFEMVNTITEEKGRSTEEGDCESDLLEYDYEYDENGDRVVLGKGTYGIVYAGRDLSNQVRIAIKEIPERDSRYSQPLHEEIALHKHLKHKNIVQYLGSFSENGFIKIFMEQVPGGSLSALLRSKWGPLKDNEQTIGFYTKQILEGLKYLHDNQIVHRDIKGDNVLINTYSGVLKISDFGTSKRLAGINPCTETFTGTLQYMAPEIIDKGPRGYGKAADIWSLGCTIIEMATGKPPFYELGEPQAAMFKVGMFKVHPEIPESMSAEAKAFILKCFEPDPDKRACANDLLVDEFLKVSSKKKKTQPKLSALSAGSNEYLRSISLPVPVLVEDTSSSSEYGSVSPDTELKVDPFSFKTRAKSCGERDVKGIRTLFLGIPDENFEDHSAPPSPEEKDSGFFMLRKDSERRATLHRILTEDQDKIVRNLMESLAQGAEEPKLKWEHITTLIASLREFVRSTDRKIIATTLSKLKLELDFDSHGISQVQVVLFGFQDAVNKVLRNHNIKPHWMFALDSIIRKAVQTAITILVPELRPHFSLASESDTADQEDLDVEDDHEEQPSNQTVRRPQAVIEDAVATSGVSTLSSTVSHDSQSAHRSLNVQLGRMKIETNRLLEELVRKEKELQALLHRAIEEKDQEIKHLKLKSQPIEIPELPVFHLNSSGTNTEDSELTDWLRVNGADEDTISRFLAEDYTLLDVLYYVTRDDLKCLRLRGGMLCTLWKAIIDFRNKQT

[14] = target: Tyrosine-protein kinase HCK (Homo sapiens) (UniProt P08631); conditions: Compound concentration 1000.0 nM
[15] = target: Tyrosine-protein kinase receptor Tie-1 (Homo sapiens) (UniProt P35590); conditions: Compound concentration 1000.0 nM
[16] = target: Serine/threonine-protein kinase 4 (Homo sapiens) (UniProt Q13043); conditions: Compound concentration 1000.0 nM
[17] = test system: Tyrosine-protein kinase ABL1 (Homo sapiens), P00519 [T315I]; conditions: Compound concentration 1000.0 nM
[18] = target: Serine/threonine-protein kinase NLK (Homo sapiens) (UniProt Q9UBE8); conditions: Compound concentration 1000.0 nM
Sequence of Serine/threonine-protein kinase NLK (Homo sapiens) (Q9UBE8 whole entry, the tested form may be a part): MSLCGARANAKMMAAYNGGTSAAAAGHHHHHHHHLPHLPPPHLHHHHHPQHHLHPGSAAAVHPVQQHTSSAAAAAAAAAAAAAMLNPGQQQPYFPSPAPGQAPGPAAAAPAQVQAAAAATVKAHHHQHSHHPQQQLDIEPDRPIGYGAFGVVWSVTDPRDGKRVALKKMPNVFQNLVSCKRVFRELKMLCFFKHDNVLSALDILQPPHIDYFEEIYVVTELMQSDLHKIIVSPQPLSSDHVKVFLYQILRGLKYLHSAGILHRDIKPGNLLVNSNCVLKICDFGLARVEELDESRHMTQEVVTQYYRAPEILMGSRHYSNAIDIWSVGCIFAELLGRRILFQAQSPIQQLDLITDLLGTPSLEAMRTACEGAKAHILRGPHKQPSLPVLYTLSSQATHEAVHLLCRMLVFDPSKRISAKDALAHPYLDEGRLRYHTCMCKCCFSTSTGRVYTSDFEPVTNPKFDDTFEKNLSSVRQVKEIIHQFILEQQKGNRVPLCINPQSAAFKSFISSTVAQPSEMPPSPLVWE

[19] = target: Ankyrin repeat and protein kinase domain-containing protein 1 (Homo sapiens) (UniProt Q8NFD2); conditions: Compound concentration 1000.0 nM
[20] = target: Serine/threonine-protein kinase MRCK alpha (Homo sapiens) (UniProt Q5VT25); conditions: Compound concentration 1000.0 nM
Sequence of Serine/threonine-protein kinase MRCK alpha (Homo sapiens) (Q5VT25 whole entry): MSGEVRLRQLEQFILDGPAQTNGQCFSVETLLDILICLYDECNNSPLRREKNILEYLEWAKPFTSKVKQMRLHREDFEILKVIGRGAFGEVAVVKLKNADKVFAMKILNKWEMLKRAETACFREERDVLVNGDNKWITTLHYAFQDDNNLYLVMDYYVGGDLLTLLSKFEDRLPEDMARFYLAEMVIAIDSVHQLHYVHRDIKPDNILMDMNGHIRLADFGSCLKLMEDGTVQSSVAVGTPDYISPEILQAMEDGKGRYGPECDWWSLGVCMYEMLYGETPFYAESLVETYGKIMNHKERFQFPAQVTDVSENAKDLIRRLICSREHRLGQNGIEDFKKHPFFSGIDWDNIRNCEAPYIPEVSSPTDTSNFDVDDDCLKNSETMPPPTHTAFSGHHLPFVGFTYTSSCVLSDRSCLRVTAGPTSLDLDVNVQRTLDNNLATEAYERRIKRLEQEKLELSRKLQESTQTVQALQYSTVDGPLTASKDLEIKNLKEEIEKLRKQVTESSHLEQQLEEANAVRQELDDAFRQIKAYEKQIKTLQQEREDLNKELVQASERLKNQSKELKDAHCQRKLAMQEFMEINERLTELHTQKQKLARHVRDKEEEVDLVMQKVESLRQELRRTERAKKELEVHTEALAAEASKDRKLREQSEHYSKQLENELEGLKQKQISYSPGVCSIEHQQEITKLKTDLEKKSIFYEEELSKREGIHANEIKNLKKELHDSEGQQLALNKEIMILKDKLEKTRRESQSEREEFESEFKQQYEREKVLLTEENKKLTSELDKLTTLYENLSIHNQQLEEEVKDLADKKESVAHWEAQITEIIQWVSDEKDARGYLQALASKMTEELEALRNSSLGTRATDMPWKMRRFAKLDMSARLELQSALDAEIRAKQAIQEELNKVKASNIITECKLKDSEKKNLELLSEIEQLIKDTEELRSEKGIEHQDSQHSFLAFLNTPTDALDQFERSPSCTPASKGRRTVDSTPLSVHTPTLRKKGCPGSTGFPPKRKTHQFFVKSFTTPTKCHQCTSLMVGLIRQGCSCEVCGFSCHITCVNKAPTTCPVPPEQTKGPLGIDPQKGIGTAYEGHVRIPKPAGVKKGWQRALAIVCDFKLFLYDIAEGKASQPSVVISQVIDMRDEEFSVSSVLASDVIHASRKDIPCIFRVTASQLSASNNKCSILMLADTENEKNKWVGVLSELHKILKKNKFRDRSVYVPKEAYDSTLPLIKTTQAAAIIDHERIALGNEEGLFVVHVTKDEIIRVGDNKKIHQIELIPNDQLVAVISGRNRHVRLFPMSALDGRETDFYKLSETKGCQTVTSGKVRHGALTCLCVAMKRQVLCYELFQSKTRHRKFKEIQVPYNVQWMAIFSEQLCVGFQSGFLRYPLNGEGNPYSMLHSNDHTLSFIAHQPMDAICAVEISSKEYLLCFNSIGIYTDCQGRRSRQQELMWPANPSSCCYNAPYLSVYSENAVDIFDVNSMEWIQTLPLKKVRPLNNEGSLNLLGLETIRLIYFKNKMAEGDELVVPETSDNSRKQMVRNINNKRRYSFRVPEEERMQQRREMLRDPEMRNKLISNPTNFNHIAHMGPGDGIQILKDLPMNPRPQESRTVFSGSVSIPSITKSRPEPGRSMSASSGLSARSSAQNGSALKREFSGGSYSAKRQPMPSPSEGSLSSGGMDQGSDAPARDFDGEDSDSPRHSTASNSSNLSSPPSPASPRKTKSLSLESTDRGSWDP

[21] = target: Serine/threonine-protein kinase PAK 6 (Homo sapiens) (UniProt Q9NQU5); conditions: Compound concentration 1000.0 nM
[22] = target: cAMP-dependent protein kinase catalytic subunit alpha (Homo sapiens) (UniProt P17612); conditions: Compound concentration 1000.0 nM
[23] = target: Tyrosine-protein kinase SYK (Homo sapiens) (UniProt P43405); conditions: Compound concentration 1000.0 nM
[24] = target: Cyclin-dependent kinase 14 (Homo sapiens) (UniProt O94921); conditions: Compound concentration 1000.0 nM
[25] = target: Tyrosine-protein kinase Lyn (Homo sapiens) (UniProt P07948); conditions: Compound concentration 1000.0 nM
[26] = target: Receptor-interacting serine/threonine-protein kinase 1 (Homo sapiens) (UniProt Q13546); conditions: Compound concentration 1000.0 nM
[27] = target: Ephrin type-B receptor 2 (Homo sapiens) (UniProt P29323); conditions: Compound concentration 1000.0 nM
[28] = target: Insulin-like growth factor 1 receptor (Homo sapiens) (UniProt P08069); conditions: Compound concentration 1000.0 nM
[29] = target: Mitogen-activated protein kinase 8 (Homo sapiens) (UniProt P45983); conditions: Compound concentration 1000.0 nM
[30] = target: Rho-associated protein kinase 1 (Homo sapiens) (UniProt Q13464); conditions: Compound concentration 1000.0 nM
[31] = target: Cyclin-dependent kinase-like 1 (Homo sapiens) (UniProt Q00532); conditions: Compound concentration 1000.0 nM
Sequence of Cyclin-dependent kinase-like 1 (Homo sapiens) (Q00532 whole entry): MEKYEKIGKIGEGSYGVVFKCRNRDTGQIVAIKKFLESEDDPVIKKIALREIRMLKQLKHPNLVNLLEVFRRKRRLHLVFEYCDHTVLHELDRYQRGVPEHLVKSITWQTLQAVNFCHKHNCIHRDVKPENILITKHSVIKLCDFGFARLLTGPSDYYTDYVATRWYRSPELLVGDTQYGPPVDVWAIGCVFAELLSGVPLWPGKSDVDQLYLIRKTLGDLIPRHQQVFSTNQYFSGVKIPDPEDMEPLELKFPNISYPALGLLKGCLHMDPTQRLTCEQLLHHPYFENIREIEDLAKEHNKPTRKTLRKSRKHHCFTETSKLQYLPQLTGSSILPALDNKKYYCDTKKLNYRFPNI

[32] = target: MAP/microtubule affinity-regulating kinase 3 (Homo sapiens) (UniProt P27448); conditions: Compound concentration 1000.0 nM
[33] = target: Phosphorylase b kinase gamma catalytic chain, skeletal muscle/heart isoform (Homo sapiens) (UniProt Q16816); conditions: Compound concentration 1000.0 nM

O=C(N1CCS(=O)(=O)CC1)N1C[C@H](c2ccc(OC(F)(F)F)cc2)C[C@H](c2nc(C3CC3)no2)C1 [BAY-386]
inhibition (Rattus norvegicus): 14.9%
residual activity [1]: 100%
residual activity [2]: 93%
residual activity [3]: 94%
residual activity [4]: 100%
residual activity [5]: 75%
residual activity [6]: 100%
residual activity [7]: 100%
residual activity [8]: 100%
residual activity [9]: 100%
residual activity [10]: 100%
residual activity [11]: 100%
% Inhibition of Control Agonist Response (Mean n=2) [12]: 18.8%
% of Control Agonist Response (Mean n=2) [12]: 11.5%
residual activity [13]: 100%
residual activity [14]: 100%
residual activity [15]: 100%
residual activity [16]: 100%
residual activity [17]: 100%
residual activity [18]: 100%
residual activity [19]: 100%
residual activity [20]: 100%
residual activity [21]: 100%
residual activity [22]: 100%
residual activity [23]: 100%
residual activity [24]: 100%
residual activity [25]: 85%
residual activity [26]: 100%
residual activity [27]: 100%
residual activity [28]: 100%
residual activity [29]: 82%
residual activity [30]: 94%
residual activity [31]: 100%
residual activity [32]: 98%
residual activity [33]: 94%

Cc1noc([C@H]2C[C@@H](c3ccc(C(F)(F)F)cc3)CN(C(=O)N3CCS(=O)(=O)C3)C2)n1 [BAY-448]
inhibition (Rattus norvegicus): 7.2%
residual activity [1]: 66%
residual activity [2]: 100%
residual activity [3]: 100%
residual activity [4]: 85%
residual activity [5]: 100%
residual activity [6]: 100%
residual activity [7]: 100%
residual activity [8]: 90%
residual activity [9]: 100%
residual activity [10]: 100%
residual activity [11]: 100%
% Inhibition of Control Agonist Response (Mean n=2) [12]: 4.3%
% of Control Agonist Response (Mean n=2) [12]: -0.4%
residual activity [13]: 100%
residual activity [14]: 100%
residual activity [15]: 89%
residual activity [16]: 100%
residual activity [17]: 69%
residual activity [18]: 70%
residual activity [19]: 100%
residual activity [20]: 100%
residual activity [21]: 100%
residual activity [22]: 100%
residual activity [23]: 96%
residual activity [24]: 100%
residual activity [25]: 100%
residual activity [26]: 100%
residual activity [27]: 100%
residual activity [28]: 100%
residual activity [29]: 77%
residual activity [30]: 100%
residual activity [31]: 100%
residual activity [32]: 100%
residual activity [33]: 100%
